For the assay, the system named is HSV-2 virus (MS strain). The assay can be described thus: HSV-2 Cellomics Assay (immunofluorescence of HSV protein gD). Type of assay: cell-based. Conditions: Human alphaherpesvirus 2, HSV-2 (MS strain, MOI 0.06) infected ARPE-19 cells, 16 hours. On the procedure: Compounds were tested for their ability to inhibit HSV-2 replication by monitoring the expression of the HSV protein gD using a high-throughput immunofluorescence-based assay. 10-dose, 3-fold serial dilutions of compounds were prepared at starting concentrations of 0.2 or 2 mM in 100% DMSO. 250 nl of compounds were spotted in quadruplicates onto black collagen-coated 384-well microplates with clear bottom (Greiner cat #781956) using a Labcyte ECHO acoustic dispenser. The final starting concentration in the assay was either […]. DMSO (no compound) and pritelivir were included on each microplate as negative and positive controls, respectively.
ARPE-19 cells (ATCC cat #CRL-2302) were maintained DMEM/F-12 Glutamax medium (Thermo Fisher Scientific cat #10565018) supplemented with 10% FBS (Corning cat #35-011-CV) and 1% Penicillin-Streptomycin (cat #30-002-CI). Prior to confluence, cells were transferred to a centrifuge tube and spun for 5 minutes at 1000 rpm. Cells were resuspended in assay medium (DMEM/F-12 Glutamax, 2% FBS, 1% Penicillin-Streptomycin) and counted. Cell density was adjusted to 150,000 cells/ml and infected with HSV-2 virus (MS strain, ATCC cat #VR-540) at a MOI of 0.06 in a 50 ml conical tube for 1 hour under constant rocking. Cells were then spun for 5 minutes at 1000 rpm and the media replaced with assay medium containing either 2% FBS or 10% human serum (EMD Millipore cat #S1-100ML). 50 μl of the infection suspension were added into microplate wells that were pre-spotted with compounds (7,500 cells per well). Plates were incubated for 16 hours at 37° C.
Cell culture medium was aspirated using a Biomek Fx and 50 μl of a paraformaldehyde solution (Electron Microscopy Sciences cat #15712-5) diluted to 4% in DPBS (Corning cat #21-031-CM) were added per well. After a 30-minute incubation at room temperature, plates were washed 4 times with 100 μl/well of PBS using a Biotek plate washer. A 1:500 solution of primary antibody (anti-HSV gD, Virusys cat #P1103) was prepared in permeabilization buffer (Invitrogen cat #00-8333-56) and 50 μl were added into wells. After a 1-hour incubation at room temperature, 50 μl of a 1:1000 solution of secondary antibody (Alexa Fluor 488 goat anti-mouse, Thermo Fisher Scientific cat #A11001) and DAPI (Thermo Fisher Scientific cat #62248) in permeabilization buffer were added into wells and plates were incubated in the dark at room temperature for 1 hour. Plates were washed 4 times again and 50 μl of DPBS were added to all wells prior to sealing the plates with a black adhesive seal. Fluorescence was measured on a Cellomics plate reader.
Data analysis was carried out using the Thermo Scientific HCS Studio software. Briefly, cells were identified using the DAPI nuclear stain and thresholds were set to filter cells out based on shape and size. A second threshold based on green fluorescence intensity (detection of HSV-2 gD) was set to identify HSV-2 infected cells. Data was reported as the average fluorescence intensity of HSV-2 infected cells. EC50 values were defined as the compound concentration that caused a 50% decrease in the average fluorescence intensity and was calculated using a sigmoidal dose-response model to generate curve fits.

Setting [1] is: assay medium containing 2% FBS, read-out: EC50-HSV2-FBS.
The mark [2] stands for this setting: assay medium containing 10% human serum, read-out: EC50-HSV2-10% Human Serum.

One may read the EC50 as the concentration that produces a half-maximal response.

Where two headings read alike, the source gives them in different places.

Turning to `CC[S@@](=N)(=O)c1cc2c(cc1F)CCN2C(=O)[C@@H]1Cc2ccc(-c3ccccn3)cc2C1` [Example 2, (R)-ethyl(5-fluoro-1-((R)-5-(pyridin-2-yl)-2,3-dihydro-1H-indene-2-carbonyl)indolin-6-yl)(imino)-λ^6-sulfanone], the EC50 was found to be 18 nM under setting [1] and 71 nM under setting [2].
With `CC[S@](=N)(=O)c1cc2c(cc1F)CCN2C(=O)[C@@H]1Cc2ccc(-c3ccccn3)cc2C1` [Example 3, (S)-ethyl(5-fluoro-1-((R)-5-(pyridin-2-yl)-2,3-dihydro-1H-indene-2-carbonyl)indolin-6-yl)(imino)-λ^6-sulfanone], the EC50 came to 73 nM under setting [1] and 258 nM under setting [2].
The corresponding values for `CC[S@](=N)(=O)c1cc2c(cc1F)CCN2C(=O)[C@H]1Cc2cc(-c3ccccn3)ccc2O1` [Example 5, (S)-ethyl(5-fluoro-1-((R)-5-(pyridin-2-yl)-2,3-dihydrobenzofuran-2-carbonyl)indolin-6-yl)(imino)-λ^6-sulfanone] are 178 nM and 474 nM.
The matching figures for `CC[S@@](=N)(=O)c1cc2c(cc1F)CCN2C(=O)[C@H]1Cc2cc(-c3ccccn3)ccc2O1` [Example 6, (R)-ethyl(5-fluoro-1-((R)-5-(pyridin-2-yl)-2,3-dihydrobenzofuran-2-carbonyl)indolin-6-yl)(imino)-λ^6-sulfanone]: 40 nM and 81 nM.
With `CCC[S@@](=N)(=O)c1cc2c(cc1F)CCN2C(=O)[C@@H]1Cc2ccc(-c3ccccn3)cc2C1` [Example 8, (R)-(5-fluoro-1-((R)-5-(pyridin-2-yl)-2,3-dihydro-1H-indene-2-carbonyl)indolin-6-yl)(imino)(propyl)-λ^6-sulfanone], the EC50 by setting is: under setting [1], 16 nM; under setting [2], 77 nM.
The corresponding values for `CCC[S@](=N)(=O)c1cc2c(cc1F)CCN2C(=O)[C@@H]1Cc2ccc(-c3ccccn3)cc2C1` [Example 9, (S)-(5-fluoro-1-((R)-5-(pyridin-2-yl)-2,3-dihydro-1H-indene-2-carbonyl)indolin-6-yl)(imino)(propyl)-λ^6-sulfanone] are 52 nM and 218 nM.
The matching figures for `CCC[S@](=N)(=O)c1cc2c(cc1F)CCN2C(=O)[C@H]1Cc2cc(-c3ccccn3)ccc2O1` [Example 11, (S)-(5-fluoro-1-((R)-5-(pyridin-2-yl)-2,3-dihydrobenzofuran-2-carbonyl)indolin-6-yl)(imino)(propyl)-λ^6-sulfanone]: 124 nM and 406 nM.
The corresponding values for `CCC[S@@](=N)(=O)c1cc2c(cc1F)CCN2C(=O)[C@H]1Cc2cc(-c3ccccn3)ccc2O1` [Example 12, (R)-(5-fluoro-1-((R)-5-(pyridin-2-yl)-2,3-dihydrobenzofuran-2-carbonyl)indolin-6-yl)(imino)(propyl)-λ^6-sulfanone] are 35 nM and 98 nM.
For the molecule `COCCS(=N)(=O)c1cc2c(cc1F)CCN2C(=O)[C@@H]1Cc2ccc(-c3ccccn3)cc2C1` (stereo partly drawn) [Example 13, (5-fluoro-1-((R)-5-(pyridin-2-yl)-2,3-dihydro-1H-indene-2-carbonyl)indolin-6-yl)(imino)(2-methoxyethyl)-16-sulfanone], the EC50 reads like this: under setting [1], 31 nM; under setting [2], 55 nM.
The matching figures for `COCC[S@@](=N)(=O)c1cc2c(cc1F)CCN2C(=O)[C@@H]1Cc2ccc(-c3ccccn3)cc2C1` [Example 14, (R)-(5-fluoro-1-((R)-5-(pyridin-2-yl)-2,3-dihydro-1H-indene-2-carbonyl)indolin-6-yl)(imino)(2-methoxyethyl)-λ^6-sulfanone]: 25 nM and 54 nM.
Consider `COCC[S@](=N)(=O)c1cc2c(cc1F)CCN2C(=O)[C@@H]1Cc2ccc(-c3ccccn3)cc2C1` [Example 15, (S)-(5-fluoro-1-((R)-5-(pyridin-2-yl)-2,3-dihydro-1H-indene-2-carbonyl)indolin-6-yl)(imino)(2-methoxyethyl)-λ6-sulfanone], for which the EC50 came out at 42 nM under setting [1] and 87 nM under setting [2].
Turning to `COCC[S@@](=N)(=O)c1cc2c(cc1F)CCN2C(=O)[C@H]1Cc2cc(-c3ccccn3)ccc2O1` [Example 17, (R)-(5-fluoro-1-((R)-5-(pyridin-2-yl)-2,3-dihydrobenzofuran-2-carbonyl)indolin-6-yl)(imino)(2-methoxyethyl)-λ^6-sulfanone], the EC50 under setting [1] turned out to be 39 nM and the EC50 under setting [2] came out at 59 nM.
The matching figures for `COCC[S@](=N)(=O)c1cc2c(cc1F)CCN2C(=O)[C@H]1Cc2cc(-c3ccccn3)ccc2O1` [Example 18, (S)-(5-fluoro-1-((R)-5-(pyridin-2-yl)-2,3-dihydrobenzofuran-2-carbonyl)indolin-6-yl)(imino)(2-methoxyethyl)-λ^6-sulfanone]: 92 nM and 208 nM.
In the case of `N=S(=O)(c1cc2c(cc1F)CCN2C(=O)[C@@H]1Cc2ccc(-c3ccccn3)cc2C1)C1CC1` (stereo partly drawn) [Example 19, cyclopropyl(5-fluoro-1-((R)-5-(pyridin-2-yl)-2,3-dihydro-1H-indene-2-carbonyl)indolin-6-yl)(imino)-λ^6-sulfanone], the EC50 under setting [1] came to 56 nM and the EC50 under setting [2] came out at 453 nM.
The matching figures for `N=[S@](=O)(c1cc2c(cc1F)CCN2C(=O)[C@@H]1Cc2ccc(-c3ccccn3)cc2C1)C1CC1` [Example 20, (R)-cyclopropyl(5-fluoro-1-((R)-5-(pyridin-2-yl)-2,3-dihydro-1H-indene-2-carbonyl)indolin-6-yl)(imino)-λ^6-sulfanone]: 33 nM and 248 nM.
In the case of `N=[S@@](=O)(c1cc2c(cc1F)CCN2C(=O)[C@@H]1Cc2ccc(-c3ccccn3)cc2C1)C1CC1` [Example 21, (S)-cyclopropyl(5-fluoro-1-((R)-5-(pyridin-2-yl)-2,3-dihydro-1H-indene-2-carbonyl)indolin-6-yl)(imino)-λ^6-sulfanone], the EC50 by setting is: under setting [1], 98 nM; under setting [2], 949 nM.
The matching figures for `CN=S(C)(=O)c1cc2c(cc1F)CCN2C(=O)[C@@H]1Cc2ccc(-c3ccccn3)cc2C1` (stereo partly drawn) [Example 22, (5-fluoro-1-((R)-5-(pyridin-2-yl)-2,3-dihydro-1H-indene-2-carbonyl)indolin-6-yl)(methyl)(methylimino)-l6-sulfanone]: 211 nM and 737 nM.
The matching figures for `CN=[S@](C)(=O)c1cc2c(cc1F)CCN2C(=O)[C@@H]1Cc2ccc(-c3ccccn3)cc2C1` [Example 23, (R)-(5-fluoro-1-((R)-5-(pyridin-2-yl)-2,3-dihydro-1H-indene-2-carbonyl)indolin-6-yl)(methyl)(methylimino)-λ^6-sulfanone]: 155 nM and 522 nM.
The matching figures for `CCS(=N)(=O)c1cc2c(cc1F)CC(C)N2C(=O)[C@@H]1Cc2ccc(-c3ccccn3)cc2C1` (stereo partly drawn) [Example 25, ethyl(5-fluoro-2-methyl-1-((R)-5-(pyridin-2-yl)-2,3-dihydro-1H-indene-2-carbonyl)indolin-6-yl)(imino)-λ^6-sulfanone]: 72 nM and 203 nM.
Regarding `CC[S@@](=N)(=O)c1cc2c(cc1F)C[C@@H](C)N2C(=O)[C@@H]1Cc2ccc(-c3ccccn3)cc2C1` [Example 26, (R)-ethyl((R)-5-fluoro-2-methyl-1-((R)-5-(pyridin-2-yl)-2,3-dihydro-1H-indene-2-carbonyl)indolin-6-yl)(imino)-λ^6-sulfanone], the EC50 reads like this: under setting [1], 30 nM; under setting [2], 92 nM.
The corresponding values for `CC[S@](=N)(=O)c1cc2c(cc1F)C[C@@H](C)N2C(=O)[C@@H]1Cc2ccc(-c3ccccn3)cc2C1` [Example 27, (S)-ethyl((R)-5-fluoro-2-methyl-1-((R)-5-(pyridin-2-yl)-2,3-dihydro-1H-indene-2-carbonyl)indolin-6-yl)(imino)-λ^6-sulfanone] are 55 nM and 113 nM.

Source of the values: patent US20250171413A1, “ANTIVIRAL INDOLINYL COMPOUNDS AND USES THEREOF” (Gilead Sciences, Inc., priority 2023, published 2025).
